Test results as given in ChEMBL document CHEMBL1201862, “PubChem BioAssay data set” (2004).
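Five compound concentrations were applied to cells in 96-well plates for 48 hours; endpoints were derived by simple linear interpolation of the resulting dose-response curve. At the GI50, growth is halved.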 The source made the active and inactive calls. Cut-off read from the data, not from the text of the source: active = GI50 up to about 1.1 µM and inactive = higher.

How the values were obtained:
Experiment in all cases: growth of human tumour cells (NCI), 48 h
COLO 205 = system: COLO 205
HCC 2998 = system: HCC 2998
HCT-116 = system: HCT-116
HOP-62 = system: HOP-62
IGROV-1 = system: IGROV-1
K562 = system: K562
NCI-H23 = system: NCI-H23
NCI-H460 = system: NCI-H460
NCI/ADR-RES = system: NCI/ADR-RES
OVCAR-3 = system: OVCAR-3
OVCAR-4 = system: OVCAR-4
OVCAR-5 = system: OVCAR-5
RPMI-8226 = system: RPMI-8226
SF-539 = system: SF-539
SK-MEL-5 = system: SK-MEL-5
SNB-75 = system: SNB-75
SR = system: SR
TK-10 = system: TK-10
UACC-257 = system: UACC-257
UO-31 = system: UO-31

Measured: GI50

O=C(N/N=C\c1ccc2ccccc2c1)Nc1ccc([N+](=O)[O-])cc1
inactive: COLO 205 21.6 µM | HCC 2998 22.1 µM | HCT-116 21.1 µM | HOP-62 27 µM | IGROV-1 29.7 µM | K562 9.84 µM | NCI-H23 22.2 µM | NCI-H460 24.4 µM | NCI/ADR-RES 20.9 µM | OVCAR-3 20.2 µM | OVCAR-4 22.1 µM | OVCAR-5 22.5 µM | RPMI-8226 15.1 µM | SF-539 19.5 µM | SK-MEL-5 22.7 µM | SNB-75 42.4 µM | SR 43 µM | TK-10 18.9 µM | UACC-257 29 µM | UO-31 23.2 µM

Cc1ccc(S(=O)(=O)N/N=C/C(=C/c2ccc(Cl)cc2)CC(/C=N/NS(=O)(=O)c2ccc(C)cc2)=C\c2ccc(Cl)cc2)cc1
inactive: COLO 205 5 µM | HCC 2998 3.21 µM | HCT-116 4.6 µM | HOP-62 19.5 µM | IGROV-1 5.81 µM | K562 2.86 µM | NCI-H23 6.93 µM | NCI-H460 5.52 µM | NCI/ADR-RES 7.36 µM | OVCAR-3 3.07 µM | OVCAR-4 5.42 µM | OVCAR-5 15.3 µM | RPMI-8226 2.64 µM | SF-539 12.1 µM | SK-MEL-5 4.03 µM | SNB-75 3.96 µM | SR 2.61 µM | TK-10 17.9 µM | UACC-257 11.4 µM | UO-31 5.62 µM

O=C(O)CCn1cnc2c(S)ncnc21
inactive: COLO 205 > 100 µM | HCC 2998 > 100 µM | HCT-116 > 100 µM | HOP-62 > 100 µM | IGROV-1 > 100 µM | K562 > 100 µM | NCI-H23 > 100 µM | NCI-H460 > 100 µM | NCI/ADR-RES > 100 µM | OVCAR-3 > 100 µM | OVCAR-4 > 100 µM | OVCAR-5 > 100 µM | RPMI-8226 > 100 µM | SF-539 > 100 µM | SK-MEL-5 > 100 µM | SNB-75 > 100 µM | SR > 100 µM | TK-10 > 100 µM | UACC-257 > 100 µM | UO-31 > 100 µM

O=C(CNC(=O)c1ccccc1)Oc1c(Cl)c(Cl)c(Cl)c(Cl)c1Cl
inactive: COLO 205 35 µM | HCC 2998 27.7 µM | HCT-116 56.4 µM | HOP-62 38.3 µM | IGROV-1 27.8 µM | K562 28.2 µM | NCI-H23 > 100 µM | NCI-H460 38.5 µM | NCI/ADR-RES 31 µM | OVCAR-3 25.4 µM | OVCAR-4 45.5 µM | OVCAR-5 47.2 µM | RPMI-8226 38.7 µM | SF-539 28.2 µM | SNB-75 45.5 µM | SR 32.4 µM | TK-10 40.4 µM | UACC-257 19.6 µM | UO-31 22 µM

O=C1COCCN1C(=O)c1ccccc1Cl
inactive: HCC 2998 > 100 µM | HCT-116 > 100 µM | HOP-62 > 100 µM | IGROV-1 > 100 µM | K562 > 100 µM | NCI-H23 > 100 µM | NCI-H460 > 100 µM | NCI/ADR-RES > 100 µM | OVCAR-3 > 100 µM | OVCAR-4 > 100 µM | OVCAR-5 > 100 µM | RPMI-8226 > 100 µM | SF-539 > 100 µM | SK-MEL-5 > 100 µM | SNB-75 > 100 µM | SR > 100 µM | TK-10 > 100 µM | UACC-257 > 100 µM | UO-31 > 100 µM
